Data on 9 molecules can be found in PubChem BioAssay (NCI).

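In this assay, cells in 96-well plates receive the compound at five concentrations for 48 hours. Endpoints are linearly interpolated between the surrounding concentrations. TGI: total growth inhibition.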

Some test systems named below: LOX IMVI melanoma; SW-620 colon; SF-539 CNS; TK-10 renal; HL-60(TB) leukemia; MDA-MB-435; OVCAR-8 ovarian; SF-268 CNS; HT29 colon; CAKI-1 renal; MOLT-4 leukemia; K-562 leukemia; HS 578T breast; U251 CNS; COLO 205 colon; SR leukemia; RPMI-8226 leukemia; EKVX NSCLC; HCC-2998 colon; NCI/ADR-RES ovarian.
What all share (assay): inhibition of tumour cell growth, NCI panel, 48 h

`CN(Cc1cnc2nc(N)nc(N)c2n1)c1ccc(C(=O)NCCS(=O)(=O)O)cc1`: the TGI with LOX IMVI melanoma, with SW-620 colon, in the assay with SF-539 CNS, in the assay on TK-10 renal, with HL-60(TB) leukemia and in the assay on MDA-MB-435 was above 100 µM each time. Besides, the TGI in the assay on OVCAR-8 ovarian, in the assay on SF-268 CNS, in the assay with HT29 colon, with CAKI-1 renal, with MOLT-4 leukemia and in the assay with K-562 leukemia was above 100 µM in each case. The TGI in the assay on HS 578T breast, in the assay on U251 CNS, in the assay with COLO 205 colon, in the assay on SR leukemia, in the assay with RPMI-8226 leukemia and with EKVX NSCLC was above 100 µM in each case. The TGI in the assay with HCC-2998 colon and in the assay on NCI/ADR-RES ovarian was above 100 µM in each case.

Turning to `CN1CCc2cc3c(c4c2C1C(O)c1ccccc1-4)OCO3` (stereo not given), the TGI in the assay with LOX IMVI melanoma was 25.1 µM; with SW-620 colon, above 100 µM; in the assay on SF-539 CNS, above 100 µM; in the assay on TK-10 renal, above 100 µM; with HL-60(TB) leukemia, 5.06 µM; with MDA-MB-435 it was 28 µM. Besides, the TGI with OVCAR-8 ovarian stood at 50.5 µM; with SF-268 CNS, 27.7 µM; in the assay with HT29 colon, 18.3 µM; with CAKI-1 renal it was 18.2 µM; in the assay with MOLT-4 leukemia, 37.6 µM; with K-562 leukemia, 63.5 µM. In addition, the TGI in the assay with HS 578T breast is 19.5 µM; in the assay with U251 CNS, 25.6 µM; in the assay with COLO 205 colon, above 100 µM; in the assay with SR leukemia, 28.8 µM; in the assay with RPMI-8226 leukemia, 32.6 µM; in the assay with EKVX NSCLC, 35.4 µM. In addition, the values for the TGI with HCC-2998 colon and in the assay on NCI/ADR-RES ovarian were 22.2 µM and 53.9 µM, respectively.

As to `O=C(OCc1ccccc1)N(CCCCN(CCCNC(=O)C(F)(F)F)C(=O)OCc1ccccc1)CCCNC(=O)C(F)(F)F`, the TGI in the assay on LOX IMVI melanoma, in the assay with SW-620 colon, in the assay on SF-539 CNS, with TK-10 renal, in the assay with HL-60(TB) leukemia and with MDA-MB-435 was above 100 µM each time. The TGI with OVCAR-8 ovarian is above 100 µM; in the assay on SF-268 CNS, above 100 µM; in the assay on HT29 colon, above 100 µM; in the assay with CAKI-1 renal, 3.55 µM; in the assay with MOLT-4 leukemia, above 100 µM; with K-562 leukemia, above 100 µM. Further, the TGI with HS 578T breast, in the assay with U251 CNS, in the assay with COLO 205 colon, in the assay on SR leukemia, in the assay on RPMI-8226 leukemia and with EKVX NSCLC was above 100 µM each time. Further, the TGI in the assay on HCC-2998 colon and with NCI/ADR-RES ovarian was above 100 µM throughout.

As to `Nc1ncc(Br)c(NCC2(CO)CCC2)n1`, the TGI in the assay on LOX IMVI melanoma, in the assay with SW-620 colon, with SF-539 CNS, in the assay on TK-10 renal, with HL-60(TB) leukemia and with MDA-MB-435 was above 100 µM throughout. Further, the TGI with OVCAR-8 ovarian, in the assay on SF-268 CNS, in the assay with HT29 colon, in the assay with CAKI-1 renal, in the assay on MOLT-4 leukemia and with K-562 leukemia was above 100 µM throughout. The TGI in the assay on HS 578T breast, in the assay with U251 CNS, with COLO 205 colon, with SR leukemia, in the assay on RPMI-8226 leukemia and with EKVX NSCLC was above 100 µM each time. The TGI with HCC-2998 colon and with NCI/ADR-RES ovarian was above 100 µM in each case.

Take `CC(C)(C)c1cc(C(=O)/C=C/c2c(Cl)cccc2Cl)cc(C(C)(C)C)c1O`: the TGI in the assay on LOX IMVI melanoma stood at 28.3 µM; with SW-620 colon it was 36.2 µM; in the assay with SF-539 CNS it was 31.6 µM; in the assay on TK-10 renal, 41.5 µM; in the assay with HL-60(TB) leukemia, 25.9 µM; in the assay on MDA-MB-435 it was 54.4 µM. The TGI is above 100 µM in the assay with OVCAR-8 ovarian; above 58.9 µM in the assay with SF-268 CNS; 26.3 µM with HT29 colon; 54.9 µM in the assay on CAKI-1 renal; above 56.5 µM in the assay with MOLT-4 leukemia; above 100 µM in the assay on K-562 leukemia. The TGI in the assay with HS 578T breast was above 84 µM; in the assay on U251 CNS, 24.5 µM; in the assay with COLO 205 colon it was 32 µM; with SR leukemia, above 37 µM; in the assay on RPMI-8226 leukemia, 21.3 µM; in the assay with EKVX NSCLC it was 63.3 µM. Moreover, the TGI in the assay on HCC-2998 colon worked out at 28.1 µM; with NCI/ADR-RES ovarian, 77.9 µM.

Take `COc1ccc(N2CN3OC(=O)N(c4ccc(OC)cc4)[C@@]3(c3ccccc3)C2)cc1`: the TGI with LOX IMVI melanoma is above 100 µM; in the assay on SW-620 colon, above 100 µM; in the assay with SF-539 CNS, above 100 µM; with TK-10 renal, above 100 µM; in the assay on HL-60(TB) leukemia, 67.9 µM; with MDA-MB-435 it was 7.12 µM. For the same molecule, the TGI with OVCAR-8 ovarian is above 100 µM; with SF-268 CNS, above 100 µM; with HT29 colon, 50.6 µM; in the assay on CAKI-1 renal, above 100 µM; with MOLT-4 leukemia, above 100 µM; in the assay with K-562 leukemia it was above 100 µM. The TGI with HS 578T breast is above 100 µM; in the assay on U251 CNS, above 100 µM; in the assay with COLO 205 colon, 80.1 µM; with SR leukemia, 66.2 µM; in the assay on RPMI-8226 leukemia, above 100 µM; in the assay on EKVX NSCLC, above 100 µM. Moreover, the TGI with HCC-2998 colon is above 100 µM; in the assay on NCI/ADR-RES ovarian it was 32 µM.

Take `COc1cccc2c1C(=O)C1=C(C2=O)C(O)CC(C)(C)O1` (stereo not given): the TGI is 57.3 µM in the assay with LOX IMVI melanoma; above 100 µM in the assay on SW-620 colon; above 100 µM in the assay on SF-539 CNS; above 100 µM with TK-10 renal; 33.8 µM in the assay on HL-60(TB) leukemia; 35.2 µM in the assay on MDA-MB-435. Further, the TGI in the assay with OVCAR-8 ovarian was 91.5 µM; with SF-268 CNS it was above 100 µM; in the assay on HT29 colon, above 100 µM; in the assay with CAKI-1 renal, above 100 µM; in the assay on MOLT-4 leukemia it was 82.6 µM; with K-562 leukemia it was 50.3 µM. The TGI with HS 578T breast is above 100 µM; with U251 CNS, above 100 µM; in the assay with COLO 205 colon, 54 µM; in the assay with SR leukemia, 46.3 µM; in the assay with RPMI-8226 leukemia, 60.4 µM; with EKVX NSCLC it was above 100 µM. The TGI in the assay on HCC-2998 colon was above 100 µM; in the assay with NCI/ADR-RES ovarian it was 75.7 µM.

Turning to `C1=CC2C=CC(C=C1)P2c1ccccc1` (stereo not given), the TGI in the assay with LOX IMVI melanoma, in the assay on SW-620 colon, in the assay on SF-539 CNS, with TK-10 renal, in the assay with HL-60(TB) leukemia and in the assay on MDA-MB-435 was above 100 µM in each case. Besides, the TGI in the assay with OVCAR-8 ovarian, with SF-268 CNS, with HT29 colon, with CAKI-1 renal, in the assay on MOLT-4 leukemia and in the assay with K-562 leukemia was above 100 µM in each case. Also, the TGI in the assay on HS 578T breast, in the assay on U251 CNS, with COLO 205 colon, in the assay on SR leukemia, in the assay with RPMI-8226 leukemia and with EKVX NSCLC was above 100 µM in each case. Further, the TGI in the assay with HCC-2998 colon and with NCI/ADR-RES ovarian was above 100 µM each time.

`O=C1N(C2CCCCC2)C(=O)N1C1CCCCC1`: the TGI with LOX IMVI melanoma is 11.1 µM; in the assay on SW-620 colon, 26.4 µM; in the assay on SF-539 CNS, 45.1 µM; in the assay with TK-10 renal, 38.5 µM; with HL-60(TB) leukemia it was 0.365 µM; in the assay with MDA-MB-435, above 81.4 µM. The TGI with OVCAR-8 ovarian was 16.6 µM; with SF-268 CNS it was 40.2 µM; with HT29 colon, 25.3 µM; in the assay with CAKI-1 renal, 25.2 µM; with MOLT-4 leukemia, 10.2 µM; in the assay with K-562 leukemia, 13.4 µM. The TGI in the assay on HS 578T breast is 2.93 µM; in the assay on U251 CNS, 18.7 µM; in the assay with COLO 205 colon, 16.2 µM; in the assay on SR leukemia, 8.83 µM; in the assay on RPMI-8226 leukemia it was 0.935 µM; in the assay on EKVX NSCLC, above 100 µM. Moreover, the TGI was above 47.3 µM with HCC-2998 colon and 14.9 µM in the assay on NCI/ADR-RES ovarian.
